According to ChEMBL document CHEMBL1153280, “Synthesis and in vitro activity of dicationic bis-benzimidazoles as a new class of anti-MRSA and anti-VRE agents” (2009):
Values after ≈ are worked out from the molar mass of the structure shown.

How the values were obtained:
Assay type in all cases: functional
Bacillus subtilis = assay: Antibacterial activity against Bacillus subtilis ATCC 23857 by NCCLS method
Enterococcus faecium = assay: Antibacterial activity against vancomycin-resistant Enterococcus faecium ATCC 700221 by NCCLS method
Clostridium perfringens = assay: Antibacterial activity against Clostridium perfringens ATCC 10388 by NCCLS method
Bacteroides fragilis = assay: Antibacterial activity against Bacteroides fragilis ATCC 23745 by NCCLS method
Staphylococcus aureus [1] = assay: Antibacterial activity against methicillin-resistant Staphylococcus aureus ATCC 33591 by NCCLS method
Streptococcus pneumoniae = assay: Antibacterial activity against Streptococcus pneumoniae ATCC 6301 by NCCLS method
Staphylococcus aureus [2] = assay: Antibacterial activity against multidrug-resistant Staphylococcus aureus BAA-39 by NCCLS method
[3] = tested on: Staphylococcus epidermidis; assay: Antibacterial activity against Staphylococcus epidermidis ATCC 12228 by NCCLS method
Enterococcus faecalis = assay: Antibacterial activity against vancomycin-resistant Enterococcus faecalis ATCC 51575 by NCCLS method
Bacillus cereus = assay: Antibacterial activity against Bacillus cereus ATCC 11778 by NCCLS method
[4] = tested on: Staphylococcus epidermidis; assay: Antibacterial activity against methicillin-resistant Staphylococcus epidermidis ATCC 51625 by NCCLS method
Staphylococcus aureus [5] = assay: Antibacterial activity against Staphylococcus aureus ATCC 29213 by NCCLS method

Compound	MIC (Bacillus subtilis)	MIC (Enterococcus faecium)	MIC (Clostridium perfringens)	MIC (Bacteroides fragilis)	MIC (Staphylococcus aureus [1])	MIC (Streptococcus pneumoniae)	MIC (Staphylococcus aureus [2])	MIC [3]	MIC (Enterococcus faecalis)	MIC (Bacillus cereus)	MIC [4]	MIC (Staphylococcus aureus [5])
CC(C)NC(=N)c1ccc2[nH]c(-c3ccc(CCc4ccc(-c5nc6cc(C(=N)NC(C)C)ccc6[nH]5)cc4)cc3)nc2c1	0.12 µg/mL (≈ 0.206 µM)	0.12 µg/mL (≈ 0.206 µM)	0.25 µg/mL (≈ 0.429 µM)	0.5 µg/mL (≈ 0.858 µM)	0.25 µg/mL (≈ 0.429 µM)	< 0.06 µg/mL	0.5 µg/mL (≈ 0.858 µM)	< 0.06 µg/mL	0.25 µg/mL (≈ 0.429 µM)	0.12 µg/mL (≈ 0.206 µM)	0.125 µg/mL (≈ 0.214 µM)	0.25 µg/mL (≈ 0.429 µM)
N=C(NC1CC1)c1ccc2[nH]c(-c3ccc(CCc4ccc(-c5nc6cc(C(=N)NC7CC7)ccc6[nH]5)cc4)cc3)nc2c1	1 µg/mL (≈ 1.73 µM)	1 µg/mL (≈ 1.73 µM)	1 µg/mL (≈ 1.73 µM)	32 µg/mL (≈ 55.3 µM)	8 µg/mL (≈ 13.8 µM)	< 0.06 µg/mL	16 µg/mL (≈ 27.6 µM)	0.12 µg/mL (≈ 0.207 µM)	32 µg/mL (≈ 55.3 µM)	0.25 µg/mL (≈ 0.432 µM)	0.25 µg/mL (≈ 0.432 µM)	8 µg/mL (≈ 13.8 µM)
CN[C@H](CC(C)C)C(=O)N[C@H]1C(=O)N[C@@H](CC(N)=O)C(=O)N[C@H]2C(=O)N[C@H]3C(=O)N[C@H](C(=O)N[C@H](C(=O)O)c4cc(O)cc(O)c4-c4cc3ccc4O)[C@H](O)c3ccc(c(Cl)c3)Oc3cc2cc(c3O[C@@H]2O[C@H](CO)[C@@H](O)[C@H](O)[C@H]2O[C@H]2C[C@](C)(N)[C@H](O)[C@H](C)O2)Oc2ccc(cc2Cl)[C@H]1O [VANCOMYCIN]	0.12 µg/mL (≈ 0.0828 µM)	> 64 µg/mL	0.12 µg/mL (≈ 0.0828 µM)	4 µg/mL (≈ 2.76 µM)	–	1 µg/mL (≈ 0.69 µM)	–	–	> 64 µg/mL	–	–	–
O=C(O)c1cn(C2CC2)c2cc(N3CCNCC3)c(F)cc2c1=O [CIPROFLOXACIN]	≤ 0.12 µg/mL	> 64 µg/mL	–	0.5 µg/mL (≈ 1.51 µM)	≤ 0.12 µg/mL	–	8 µg/mL (≈ 24.1 µM)	≤ 0.12 µg/mL	0.5 µg/mL (≈ 1.51 µM)	≤ 0.12 µg/mL	≤ 0.12 µg/mL	0.5 µg/mL (≈ 1.51 µM)
CC(C)NC(=N)c1ccc2[nH]c(-c3ccc(CCc4ccc(-c5nc6cc(C(=N)NC(C)C)ccc6[nH]5)cn4)cc3)nc2c1	32 µg/mL (≈ 54.8 µM)	16 µg/mL (≈ 27.4 µM)	0.5 µg/mL (≈ 0.857 µM)	16 µg/mL (≈ 27.4 µM)	8 µg/mL (≈ 13.7 µM)	8 µg/mL (≈ 13.7 µM)	8 µg/mL (≈ 13.7 µM)	2 µg/mL (≈ 3.43 µM)	4 µg/mL (≈ 6.85 µM)	8 µg/mL (≈ 13.7 µM)	4 µg/mL (≈ 6.85 µM)	16 µg/mL (≈ 27.4 µM)
CC(C)NC(=N)c1ccc(CCc2ccc(-c3nc4cc(C(=N)NC(C)C)ccc4[nH]3)cc2)cc1	1 µg/mL (≈ 2.14 µM)	1 µg/mL (≈ 2.14 µM)	> 32 µg/mL	32 µg/mL (≈ 68.6 µM)	4 µg/mL (≈ 8.57 µM)	0.12 µg/mL (≈ 0.257 µM)	8 µg/mL (≈ 17.1 µM)	0.25 µg/mL (≈ 0.536 µM)	2 µg/mL (≈ 4.29 µM)	0.5 µg/mL (≈ 1.07 µM)	1 µg/mL (≈ 2.14 µM)	4 µg/mL (≈ 8.57 µM)
CC(C)NC(=N)c1ccc2[nH]c(-c3ccc(CCc4ccc(-c5nc6cc(C(=N)NC(C)C)ccc6[nH]5)s4)cc3)nc2c1	0.5 µg/mL (≈ 0.849 µM)	–	0.25 µg/mL (≈ 0.425 µM)	4 µg/mL (≈ 6.79 µM)	0.5 µg/mL (≈ 0.849 µM)	–	0.5 µg/mL (≈ 0.849 µM)	0.12 µg/mL (≈ 0.204 µM)	0.5 µg/mL (≈ 0.849 µM)	0.25 µg/mL (≈ 0.425 µM)	0.12 µg/mL (≈ 0.204 µM)	1 µg/mL (≈ 1.7 µM)
COc1ccc(CCc2ccc(-c3nc4ccc(C(=N)NC(C)C)cc4[nH]3)cc2)cc1	4 µg/mL (≈ 9.7 µM)	8 µg/mL (≈ 19.4 µM)	16 µg/mL (≈ 38.8 µM)	> 32 µg/mL	4 µg/mL (≈ 9.7 µM)	8 µg/mL (≈ 19.4 µM)	8 µg/mL (≈ 19.4 µM)	4 µg/mL (≈ 9.7 µM)	32 µg/mL (≈ 77.6 µM)	4 µg/mL (≈ 9.7 µM)	4 µg/mL (≈ 9.7 µM)	4 µg/mL (≈ 9.7 µM)
CC1(C)S[C@@H]2[C@H](NC(=O)Cc3ccccc3)C(=O)N2[C@H]1C(=O)O [PENICILLIN G]	< 0.06 µg/mL	> 32 µg/mL	≤ 0.06 µg/mL	4 µg/mL (≈ 12 µM)	> 32 µg/mL	< 0.06 µg/mL	> 32 µg/mL	32 µg/mL (≈ 95.7 µM)	4 µg/mL (≈ 12 µM)	> 4 µg/mL	32 µg/mL (≈ 95.7 µM)	1 µg/mL (≈ 2.99 µM)
